Key:
[1] = test system: murine CD8+ T cells; experiment: Murine CD8+ T-cell proliferation (CFSE), Example 6; format: cell-based, C57BL/6 mice
Procedure: Preparation of test materials: TTA, compound A and compound B were formulated in RPMI media under aseptic conditions. The pH was adjusted to approximately 7.5 before dosing cells.
Tissue culture and dosing: Splenocytes of C57BL/6 mice were stained with CFSE and prepared, cultured, and dosed. Cells were seeded at 1×10^5 cells/well in a 96-well round-bottomed plate.
Controls: Two controls were used. A negative control dosed with 10 ng/ml IL2 was used, and a positive control dosed with 20 μg/ml ConA and 10 ng/ml IL2 was used.
Treatment: After ConA stimulation (10 μg/ml), cells were dosed with 30 mM compound A, B or C with or without 0.1 mM 30:70 PS:DMPC liposomes. All wells were dosed with 10 ng/ml of IL-2.

[2] = test system: T-cells isolated from spleens; experiment: FoxP3/KLRG-1/CTLA4 in T-cells isolated from spleens of compound D-treated animals; format: in vivo; settings: 2.5 mg IV daily for seven days
Procedure: Animals were treated with 2.5 mg of compound D IV daily for seven days. Upon completion of the treatment period, T-cells isolated from spleens of the animals were analyzed by flow cytometry.

[3] = test system: Granzyme B and IFN-γ; experiment: Dose-response of GranzymeB/IFN-γ double positivity in murine CD8+ T-cells, Example 9; format: cell-based, C57BL/6 mice; settings: Mus musculus, T-cell
Procedure: A dose-response analysis of compounds B-E in murine CD8+ T-cells was conducted to evaluate the effect of dose on GranzymeB/IFN-γ double positivity.
Compound C, D and E were first dissolved in a small volume of DMSO before diluting to the final desired concentration.
Splenocytes from naïve C57BL/6 mice were stained with CFSE, prepared, cultured, and dosed. Cells were seeded at 2×10^5 cells/well. Negative control was dosed with 10 ng/ml IL-2. After ConA stimulation (10 μg/ml), cells were dosed with log 3 dilution of each compound from 3×10^−9 to 30 µM in triplicates. All wells were dosed with 10 ng/ml of IL-2.
Flow cytometer analysis was performed to assess percent CD8+ T-cells and percent activation by double staining for Granzyme B (GzmB) and IFN-γ as described in Example 7. Concentration versus response curve was fitted to a 4- or 5-parameter log-logistic model using the “dre” package in “R”. Both EC50 and EC90 were obtained by model fitting.

[4] = test system: KLRG1; experiment: Percent KLRG1+ T-cells in spleens, single dose on Day 7 (Examples 17, 19, 20); format: in vivo, C57BL6 mice; settings: for activity after oral administration (KLRG1+, PD1+ T-cells): single PO dose: E 2.5 mg, F 1 mg, G 1 mg; for percent KLRG1+ T-cells compared to untreated animals: single dose, E 0.1, 0.25, 1 mg IV or 2.5 mg PO, F 0.03-1 mg IV or 1 mg PO, G 0.1, 0.4, 1 mg IV or 1 mg PO
Procedure: (§1) Melanoma B16F10 cells were injected IV into C57BL6 mice on Day 0. On Day 7, mice were administered a single dose of 0.1 mg, 0.25 mg, or 1 mg of Compound E IV or 2.5 mg Compound E PO. One group was left untreated. Three mice at each time point were sacrificed, and their spleens were extracted. Percent KLRG1+ and PD-1^+ T-cells were quantified. Briefly, single-cell suspensions prepared from the extracted spleens were prepared and stained for KLRG1, PD-1 and CD8, and analyzed by flow cytometry.
as §1, with “of 0.03 mg,” for “of”, “0.3 mg” for “0.25 mg,”, “mg” for “mg of”, “F” for “E”, “1” for “2.5”
as §1, with “0.4” for “0.25”, “mg” for “mg of”, “G” for “E”, “1” for “2.5”

[5] = test system: PD-1; experiment: Percent PD-1+ T-cells in spleens, single dose on Day 7 (Examples 17, 19, 20); format: in vivo, C57BL6 mice; settings: E 0.1, 0.25, 1 mg IV or 2.5 mg PO, F 0.03-1 mg IV or 1 mg PO, G 0.1, 0.4, 1 mg IV or 1 mg PO
Procedure: as §1
as §1, with “of 0.03 mg,” for “of”, “0.3 mg” for “0.25 mg,”, “mg” for “mg of”, “F” for “E”, “1” for “2.5”
as §1, with “0.4” for “0.25”, “mg” for “mg of”, “G” for “E”, “1” for “2.5”

[6] = test system: TNF-α; experiment: TNF-α ELISA in RAW 264.7 cells; format: cell-based, mouse; settings: 0.0001-100 mM, human FVIII antigen
Procedure: (§2) RAW 264.7 cells were prepared, cultured, and dosed as described herein. The RAW 264.7 cell line is an immortalized mouse monocyte macrophage that is very close to primary cells, easy to maintain with minimum manipulation, and known to express TIM4. […] OPLS and TTA were dosed at 100, 70, 50, 30, 10, 3, 1, 0.3, 0.1, 0.03, 0.01, 0.003, 0.001, 0.0003 and 0.0001 mM. Finally, 100 μl of 40 μg/ml of human FVIII as a sample antigen was added to each well. LPS and free protein were used as positive and baseline controls, respectively. OPLS and TTA were formulated in RPMI media in aseptic conditions. The pH was adjusted to approximately 7.5 before dosing cells. TNF-α and TGF-β ELISAs were conducted as per the manufacturer's instructions (TNF-α ELISA kit: R&D systems DY410; TGF-β ELISA kit: R&D systems DY1679).

[7] = test system: TGF-β; experiment: TGF-β ELISA in RAW 264.7 cells; format: cell-based, mouse; settings: 0.0001-100 mM, human FVIII antigen
Procedure: as §2

[8] = test system: human CD8+ T cells; experiment: Proliferation of PS-treated human CD8+ T-cells (CFSE); format: cell-based; settings: 70 mM L-(+)-tartaric acid with 0.1 mM PS
Description: (§3) 30:70 PS:DMPC liposomes were synthesized in PBS.

[9] = test system: PD-1 and TIM3; experiment: PD-1 and TIM3 expression on PS-treated human CD8+ T-cells (flow cytometry); format: cell-based
Description: as §3

[10] = test system: human CD8+ T cells; experiment: Survival of PS-treated human CD8+ T-cells (viability dye, microscopy)
Procedure: (§13) CD8+ T-cells were stained with CFSE (ThermoFisher Catalog No. 50-169-50), and prepared, cultured, and dosed as described herein. Briefly, cells were seeded at 4×10^5 cells/well. IL-2 (10 ng/ml) was used as a negative control, and ConA (20 μg/ml) in conjunction with IL-2 (10 ng/ml) was used as a positive control. After ConA stimulation (10 μg/ml) in the presence of 10 ng/ml IL-2, cells were dosed in duplicate with PS:DMPC liposomes to give a total of 100, 10, 1, or 0.1 mM of PS. […] Flow cytometer analysis was performed to assess cell survival by viability dye and proliferation by CFSE (gated on survived CD8+ T-cells).
(§14) Cells were observed via a microscope at the end of the incubation period.

[11] = test system: murine CD8+ T-cells; experiment: Murine CD8+ T-cell proliferation concentration-response (CFSE), Example 7; format: cell-based, C57BL/6 mice
Description: (§4) In this study, the effects of increasing doses of compound B and compound C on proliferation (CFSE staining), activation (Granzyme B and IFN-γ), and checkpoint modulation (PD1 and TIM3) of murine CD8+ T-cells in the presence and absence of phosphatidylserine (PS) were explored.
(§5) Preparation of test materials: 30:70 PS:DMPC liposomes were synthesized in PBS. […] Compound C was first dissolved in a small volume of DMSO before diluting to the final desired concentration.
(§6) Tissue culture and dosing: Splenocytes of C57BL/6 mice were stained with CFSE and prepared, cultured, and dosed. Cells were seeded at 4×10^5 cells/well.
(§7) Controls: Two controls were used. A negative control dosed with 10 ng/ml IL-2 was used, and a positive control dosed with 20 μg/ml ConA and 10 ng/ml IL-2 was used.
(§8) Treatment: After ConA stimulation (10 μg/ml), cells were dosed with log 3 dilution of compound B or compound C to cover a range from 1×10^−3 to 30 mM in duplicates with or without 0.1 mM PS:DMPC liposomes. All wells were dosed with 10 ng/ml of IL-2.
(§9) Flow cytometer: Flow cytometer analysis was performed to assess cell proliferation by CFSE, activation by double staining for Granzyme B (GzmB) and IFN-γ, checkpoint modulation by double staining for PD-1 and TIM3.
(§10) Exposure-response analysis: Change from baseline was calculated for each marker as follows:
(§11) Concentration versus change was fitted to an appropriate three-, four- or five-parameter log-logistic model using “dre” package in “R.”
The fold change from baseline of CD8+ T-cells proliferation as a function of increasing doses of compound B was calculated using equation 1, where ResponseControl was the proliferation of cells treated with IL-2 alone and Responsetreatment was the proliferation at each dose of compound B. The baseline PS response was calculated using the same equation where Responsetreatment was the proliferation of cells treated with 0.1 mM PS.

[12] = test system: Granzyme B and IFN-γ; experiment: GzmB+/IFN-γ+ double-positive murine CD8+ T-cells, Example 7; format: cell-based, C57BL/6 mice; settings: controls: high dose ConA; 0.1 mM PS liposomes
Description: as §4, §5, §6, §7, §8, §9, §10, §11
(§12) The fold change from baseline GzmB+/IFN-γ+ double-positive CD8+ T-cells as a function of increasing doses of compound B was calculated using equation 1, where Responsecontrol was GzmB+/IFN-γ+ double-positive CD8+ T-cells in cells treated with IL-2 alone and Responsetreatment was GzmB+/IFN-γ+ double-positive CD8+ T-cells at each dose of compound B. The baseline PS response was calculated using the same equation with Responsetreatment as the GzmB+/IFN-γ+ double-positive CD8+ T-cells treated with 0.1 mM PS.

[13] = test system: TIM3 and PD-1; experiment: TIM3+/PD-1+ double-positive murine CD8+ T-cells, Example 7; format: cell-based, C57BL/6 mice; settings: controls: high dose ConA; 0.1 mM PS liposomes
Description: as §4, §5, §6, §7, §8, §9, §10, §11
as §12, with “baseline of TIM3+/PD-1+” for “baseline GzmB+/IFN-γ+”, “was TIM3+/PD-1+” for “was GzmB+/IFN-γ+”, “the TIM3+/PD-1+” for “the GzmB+/IFN-γ+”

[14] = test system: human CD8+ T cells
Procedure: as §13, §14

[15] = 30 mM, in absence of PS, ConA 10 μg/ml
[16] = 70 mM L-(+)-tartaric acid with 0.1 mM PS

## O=C(O)[C@H](O)[C@@H](O)C(=O)OCc1ccccc1 [A, (2R,3R)-4-(benzyloxy)-2,3-dihydroxy-4-oxobutanoic acid]
[1]; [15]
  percent of CD8+ T-cell proliferation: 64.4%

## O=C(O)[C@H](O)[C@@H](O)C(=O)OCCC1c2ccccc2-c2ccccc21 [Compound D, (2R,3R)-4-(2-(9H-fluoren-9-yl)ethoxy)-2,3-dihydroxy-4-oxobutanoic acid]
[2]
  CTA4+/CD8+ T-cells: 0.27%
  FoxP3+ CD4+ T-cells: 5.42%
  KLRG-1+/CD8+ T-cells: 5.11%
  reduction in CTA4+/CD8+ T-cells: 27%
  reduction in FoxP3+ CD4+ T-cells compared to control animals: 58%
  reduction in KLRG-1+/CD8+ T-cells: 80%
[3]; 4-parameter model
  EC50: 4.1 nM
  EC90: 50 nM
[3]; 5-parameter model
  EC50: 3.5 nM
  EC90: 39 nM
[3]; FIG. 4, 5-parameter fit, read-out: maximal response (GzmB/IFN-γ double positive CD8+ T-cells)
  Emax: 40%

## O=C(O)[C@H](O)[C@@H](O)C(=O)NCCn1c2ccccc2c2ccccc21 [Compound F, (2R,3R)-4-((2-(9H-carbazol-9-yl)ethyl)amino)-2,3-dihydroxy-4-oxobutanoic acid]
[4]
  activity after oral administration (KLRG1+, PD1+ T-cells): effective after oral administration
  percent KLRG1+ T-cells compared to untreated animals: dose-dependent reduction
[5]
  percent PD1+ T-cells compared to untreated animals: dose-dependent reduction

## O=C(O)[C@H](O)[C@@H](O)C(=O)NCCCc1ccccc1 [Compound G, (2R,3R)-2,3-dihydroxy-4-oxo-4-((3-phenylpropyl)amino)butanoic acid]
[4]
  activity after oral administration (KLRG1+, PD1+ T-cells): effective after oral administration
  percent KLRG1+ T-cells compared to untreated animals: dose-dependent reduction
[5]
  percent PD1+ T-cells compared to untreated animals: dose-dependent reduction

## O=C(O)[C@H](O)[C@@H](O)C(=O)O [L-(+)-tartaric acid]
[6]
  TNF-α production: stimulate TNF-α production
[7]
  TGF-β production: without stimulating TGF-β production
[8]
  effect on PS-suppressed CD8+ T-cell proliferation/accumulation (CFSE): partially reversed the effect of PS
[9]; [16]
  PD-1 expression: 23%
  TIM3 expression: 0.527%
  decrease of TIM3 expression compared to PS only group: about 66%
  frequency of cells co-expressing PD-1 and TIM3: 0.198%
  reduction of PD-1 expression compared to PS only-treated group: about 35%
  reduction of cells co-expressing PD-1 and TIM3 compared to PS only: 91.4%
[1]; [15]
  percent of CD8+ T-cell proliferation: 41.74%
[10]; [16]
  increase in viable CD8+ T cells compared to PS-treated cells alone: 65%

## phosphatidylserine [PS, reference compound]
[9]; 0.1 mM PS only
  PD-1 expression: 35%
  TIM3 expression: 1.53%
  frequency of cells co-expressing PD-1 and TIM3: 2.31%
[1]; controls: ConA 20 μg/ml + IL2, 0.1 mM PS
  percent of CD8+ T-cell proliferation: 4.84%
[11]; 0.1 mM PS
  fold increase in CD8+ T-cell proliferation compared to control cells: 28 fold
[11]; controls: high dose ConA 20 μg/ml, 0.1 mM PS liposomes
  percent proliferation of CD8+ T-cells: 4.24%
[12]
  GzmB+/IFN-γ+ double-positive CD8+ T-cells relative to negative control: one half
[13]
  fold increase in TIM3+/PD-1+ double-positive CD8+ T-cells vs negative control: 1.27 fold
[14]
  microscopic observation of cells: did not look healthy
[10]; controls: ConA 20 μg/ml + IL-2, 0.1 mM PS after ConA stimulation
  CD8+ T-cell survival: 25.9%
